Measurements as given in US20070254891A1, “Crystalline forms of 4-(2-fluorophenyl)-6-methyl-2-(piperazin-1-yl)thieno[2,3-d]pyrimidine” (Dynogen Pharmaceuticals, Inc., priority 2006, published 2007).

How the values were obtained:
[1] = tested on: acetic acid-induced colonic hypersensitivity; assay: Visceromotor response to colorectal distension in acetic acid-sensitized rats
Method: The visceromotor behavioral response to colorectal distension was measured by counting the number of abdominal contractions recorded by a strain gauge sutured onto the abdominal musculature as described in Gunter et al., Physiol. […] A 5 cm latex balloon catheter inserted via the anal canal into the colon was used for colorectal distensions. Constant pressure tonic distensions were performed in a graded manner (15, 30 or 60 mmHg) and were maintained for a period of 10 min and the numbers of abdominal muscle contractions were recorded to measure the level of colonic sensation. A 10 min recovery was allowed between distensions.
J. Physiol. […] In the present study, a low concentration of acetic acid (1.5 ml, 0.6%) was administered intracolonically to sensitize the colon without causing histological damage to the colonic mucosa as described in previous studies (Gunter et al., supra).
Injection volume was 0.2 mL using 100% propylene glycol as the vehicle. Three consecutive colorectal distensions at 15, 30 or 60 mmHg applied at 10-min intervals were recorded. Visceromotor responses were evaluated as the number of abdominal muscle contractions recorded during the 10-min periods of colorectal distension.
Adult male rats were used in the study. […] Specifically, rats were anesthetized with Isoflurane (2%) and were instrumented with a strain gauge force transducer for recording of abdominal muscle contractions. A latex balloon and catheter were inserted 11 cm into the colon. The animals were allowed a 30-min period to completely recover from the anesthesia and were then subjected to intracolonic infusion of acetic acid (1.5 mL, 0.6%). An additional 30-min period was allowed for sensitization of the colon. […] The protocol for colorectal distension was initiated 30-min post drug administration. After a basal reading of the number of abdominal contractions with the balloon inserted but not distended, three consecutive 10-min lasting colorectal distensions at 15, 30, and 60 mmHg were applied at 10-min intervals. Colorectal sensitivity was evaluated by counting the number of reflex abdominal contractions (i.e. the visceromotor response) observed within each distension period.
The visceromotor behavioral response to colorectal distension was measured by counting the number of abdominal contractions recorded by a strain gauge sutured onto the abdominal musculature as previously described Gunter et al., referenced above. Colorectal distensions were carried out utilizing a 5 cm latex balloon catheter inserted into the colon via the anal canal. Constant pressure tonic distensions were performed in a graded manner, i.e., the pressure was increased to the desired level of 15, 30, or 60 mmHg and then maintained for a period of 10 minutes during which the number of abdominal contractions were recorded to measure the level of colonic sensation. Ten minute recovery periods were allowed following each distension.

[2] = tested on: stress-induced accelerated colonic transit; assay: Water avoidance stress (WAS) model of increased colonic transit, fecal pellet output; type: in vivo, rat
Source text: At the end of the 1-hour stress period, the fecal pellets were counted and recorded. WAS causes an acceleration of colonic transit, which can be quantified by counting the number of fecal pellets, produced during the stress procedure. Rats were placed for 1-hour into a stress chamber onto a raised platform 7.5 cm×7.5 cm×9 cm (L×W×H) in the center of a stress chamber filled with room temperature water 8 cm in depth. The stress chamber was constructed from a rectangular plastic tub (40.2×60.2×31.2 cm). […] Ondansetron was supplied from APIN Chemicals LTD. […] MCI-225 was provided by Mitsubishi Pharma Corp. All drugs were dissolved in a vehicle of 100% propylene glycol (1,2-propanediol) by sonicating for a period of 10 minutes. Propylene glycol was obtained from Sigma Chemical Co. […] All drugs and the vehicle were administered as an i.p. injection in a volume of 0.2 mL.

small intestinal transit = assay: Small Intestinal Transit Rodent Model (charcoal meal); type: in vivo, rat; conditions: for Small intestinal transit, Mean (% of total length): 15 min test period
Method: Following an overnight fast, rats were brought to the laboratory in their home cages and received an i.p. injection of one of the following: […] Control rats received no treatment. The treated rats were placed back in the home cages and after 30 min, were fed a 2 mL charcoal meal via an oral gavage. Small intestinal transit was measured following 15 min test-period. Each rat was placed briefly in a glass chamber with IsoFlo for anesthesia and sacrificed. The stomach and the small intestine were removed and the total length of the small intestine was measured. Transit was then measured as the distance that the charcoal meal had traveled along the small intestine and expressed as % of the total length. Animals were randomly assigned to experimental groups and experiments were performed as illustrated in Table 11. Small intestinal transit in rats was investigated by the passage of a charcoal meal along the small intestine during a defined time period (15-min). The animals were deprived of food for 12-16 hrs prior to the experiments. Rats were given a charcoal meal (a mixture of charcoal, gum arabic, and distilled water) as a 2 mL oral gavage and were sacrificed after a 15-min test period. The distance traveled by the charcoal meal was quantified as a percent of the small intestinal length, using the following equation: Transit (%)=cm traveled by meal/cm total small intestinal length×100 […]

[3] = tested on: retching and vomiting induced by cisplatin; assay: Cisplatin-induced emesis in the ferret; type: in vivo, ferret (Mustela putorius furo)
Method: Following administration of the cisplatin and either MCI-225, ondansetron or vehicle alone, the occurrence of retching and vomiting was monitored for a period of 6 hours. […] Vomiting was defined as the forceful oral expulsion of upper gastrointestinal contents. The latency of the retching or vomiting response and the number of episodes were recorded for each animal and summarized for each experimental group (Wright et al., Infect. […] Following one hour of acclimation to the observation cage, ferrets received an intraperitoneal (i.p.) injection of cisplatin (5 mg/kg in 5 mL) followed in about 2 minutes by i.p. injection of a single dose of MCI-225 or ondansetron (Rudd and Naylor, Eur. J. Pharmacol., 322: 79-82 (1997)). […] Each animal received a single-dose drug treatment. In addition, three animals received an initial dose (30 mg/kg i.p.) and a second MCI-225 injection (30 mg/kg i.p.) 180 minutes following the initial dose. […] All groups were randomized.

Cc1nccn1CC1CCc2c(c3ccccc3n2C)C1=O (stereo not drawn) [Ondansetron, reference compound]
Responses to moderate (30 mmHg) and high (60 mmHg) intraluminal pressure ([1]; 10 mg/kg i.p.): did not abolish the responses
Behavioral activity of the rats ([1]; 1, 5 or 10 mg/kg i.p.): No significant changes
Number of abdominal contractions (visceromotor response) ([1]; 1, 5 or 10 mg/kg i.p., 15, 30, 60 mmHg): dose-dependent decrease
Stress-induced fecal pellet output during 1 hour of WAS ([2]; 1, 5 and 10 mg/kg i.p.): dose-dependent inhibition
Small intestinal transit, Mean (% of total length) (small intestinal transit; 1 mg/kg i.p.): 27.6%
Small intestinal transit, Mean (% of total length) (small intestinal transit; 5 mg/kg i.p.): 32.1%
Small intestinal transit, Mean (% of total length) (small intestinal transit; 10 mg/kg i.p.): 18.4%
Effect on small intestinal transit (small intestinal transit; 1, 5 or 10 mg/kg i.p.): significant reduction
Number of emetic events induced by cisplatin ([3]; 5 mg/kg and 10 mg/kg i.p.): dose-dependently reduced
Latency ([3]; 5 mg/kg i.p.): 288 ± 4 min
Retches (360 min) ([3]; 5 mg/kg i.p.): 11.2 ± 7.0
Total Events ([3]; 5 mg/kg i.p.): 11.5 ± 7.2
Vomits (360 min) ([3]; 5 mg/kg i.p.): 0.3 ± 0.2
Latency ([3]; 10 mg/kg i.p.): 313 ± 32 min
Retches (360 min) ([3]; 10 mg/kg i.p.): 2.4 ± 1.6
Total Events ([3]; 10 mg/kg i.p.): 2.4 ± 1.6
Vomits (360 min) ([3]; 10 mg/kg i.p.): 0.0 ± 0.0

CNCCC(Oc1ccccc1OC)c1ccccc1 (stereo not drawn) [Nisoxetine]
Behavior in the home cage during the experiments ([1]; 30 mg/kg i.p.): increased exploratory behavior
Visceromotor response to colorectal distension ([1]; 3, 10 or 30 mg/kg i.p.): no significant effect
WAS-induced fecal pellet output during 1 hour ([2]; 3, 10 or 30 mg/kg i.p.): reduced by all doses
Fecal pellets produced during WAS compared to the vehicle treated group ([2]; 10 and 30 mg/kg i.p.): significantly fewer
Small intestinal transit, Mean (% of total length) (small intestinal transit; 3 mg/kg i.p.): 40.3%
Small intestinal transit, Mean (% of total length) (small intestinal transit; 10 mg/kg i.p.): 38.6%
Charcoal meal completely retained in the stomach (small intestinal transit; 30 mg/kg i.p.): 4 out of 5
Effect on small intestinal transit (small intestinal transit; 30 mg/kg i.p.): almost completely inhibited the transit
Small intestinal transit, Mean (% of total length) (small intestinal transit; 30 mg/kg i.p.): 4.7%
Effect on small intestinal transit (small intestinal transit; 3 or 10 mg/kg i.p.): tendency to decrease
